# Measurements taken from patent US10323038B2, “Pyrazole compounds and methods of making and using same” (ABIDE THERAPEUTICS, INC., priority 2015, dated 2019).
# Tests used:
# MAGL [1] = target: T1, MAGL (Mus musculus (Mouse), UniProt O35678); assay: In vitro competitive activity-based protein profiling, MAGL (mouse); assay type: biochemical; conditions: for inhibition at 1 µM: read-out: MAGL % inh. 1 μM (mouse)
# How it was run: (§1)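 Proteomes at 1.0 mg/mL protein (mouse brain membranes or cell lysates; human prefrontal cortex or cell membranes) preincubated with inhibitor 30 min at 37 °C. Then FP-Rh or HT-01 probe (50 μM stock) added for 30 min at 37 °C. MAGL and FAAH activity measured by SDS-PAGE band fluorescence.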
# FAAH = FAAH (Mus musculus (Mouse), UniProt O08914); assay: In vitro competitive activity-based protein profiling, FAAH (mouse); assay type: biochemical; conditions: for inhibition at 1 µM: read-out: FAAH % inh. 1 μM (mouse)
# How it was run: as §1
# MAGL [2] = target: T1, MAGL; assay: Mouse brain proteomes from inhibitor treated mice (oral gavage, 4 h), MAGL; assay type: in vivo; conditions: read-out: MAGL % inh. 5 mg/kg (mouse)
# Protocol: Preparation of Mouse Brain Proteomes from Inhibitor Treated Mice.
# Inhibitors were administered to wild-type C57Bl/6J by oral gavage in a vehicle of polyethylene glycol. Each animal was sacrificed 4 h following administration and brain proteomes were prepared and analyzed according to previously established methods (See Niphakis, M. J., et al. (2011) ACS Chem. Neurosci. and Long, J. Z., et al. Nat. Chem. Biol. 5:37-44).
# T1 sequence (O35678 whole entry): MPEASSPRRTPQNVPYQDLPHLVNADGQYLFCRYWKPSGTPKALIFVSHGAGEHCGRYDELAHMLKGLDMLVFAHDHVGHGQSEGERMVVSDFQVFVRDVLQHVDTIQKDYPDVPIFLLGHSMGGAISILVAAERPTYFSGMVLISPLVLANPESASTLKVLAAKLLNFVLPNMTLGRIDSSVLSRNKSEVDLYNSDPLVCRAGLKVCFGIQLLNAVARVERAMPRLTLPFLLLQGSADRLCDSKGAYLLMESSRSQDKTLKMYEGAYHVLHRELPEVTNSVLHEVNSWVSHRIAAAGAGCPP
# Sequence of FAAH (O08914 whole entry): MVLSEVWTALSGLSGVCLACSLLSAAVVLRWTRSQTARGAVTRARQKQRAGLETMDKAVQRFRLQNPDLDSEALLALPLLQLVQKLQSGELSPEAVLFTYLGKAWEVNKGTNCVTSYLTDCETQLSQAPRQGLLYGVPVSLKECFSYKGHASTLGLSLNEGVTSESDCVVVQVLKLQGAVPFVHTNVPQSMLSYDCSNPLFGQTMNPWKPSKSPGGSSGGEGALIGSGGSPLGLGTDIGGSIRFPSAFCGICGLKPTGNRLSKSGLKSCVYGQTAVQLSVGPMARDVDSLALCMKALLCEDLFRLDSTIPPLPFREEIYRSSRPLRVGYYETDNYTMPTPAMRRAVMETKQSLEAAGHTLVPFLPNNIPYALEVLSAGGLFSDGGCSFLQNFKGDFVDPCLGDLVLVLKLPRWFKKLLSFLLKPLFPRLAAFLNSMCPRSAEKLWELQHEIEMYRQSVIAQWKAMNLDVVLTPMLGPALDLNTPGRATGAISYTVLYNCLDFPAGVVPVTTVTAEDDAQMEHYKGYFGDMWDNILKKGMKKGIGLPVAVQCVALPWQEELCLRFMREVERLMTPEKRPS
Structure (SMILES),IC50 (MAGL [1]) [nM],inhibition at 1 µM (MAGL [1]) [%],IC50 (FAAH) [nM],inhibition at 1 µM (FAAH) [%],inhibition at 5 mg/kg (MAGL [2]) [%]
"CS(=O)(=O)Nc1cnn(C(=O)N2CCN(Cc3ccc(N4CCCC4)cc3C(F)(F)F)CC2)c1 [Example 292, N-(1-(4-(4-(pyrrolidin-1-yl)-2-(trifluoromethyl)benzyl)piperazine-1-carbonyl)-1H-pyrazol-4-yl)methanesulfonamide]",≤ 100,25 to 50,1000 to 10000,≥ 75,50 to 75
"CC(=O)N(C)c1cnn(C(=O)N2CCC3(CCN(Cc4cccc(Oc5ccccc5)c4)C3)C2)c1 (stereo not shown) [Example 236, N-methyl-N-(1-(7-(3-phenoxybenzyl)-2,7-diazaspiro[4.4]nonane-2-carbonyl)-1H-pyrazol-4-yl)acetamide]",100 to 1000,≥ 75,≤ 100,≥ 75,25 to 50
"CC(=O)N(C)c1cnn(C(=O)N2C[C@H]3C[C@H](N(C)Cc4ccc(Cl)cc4)C[C@H]3C2)c1 [Example 148, N-(1-(trans-5-((4-chlorobenzyl)(methyl)amino)octahydrocyclopenta[c]pyrrole-2-carbonyl)-1H-pyrazol-4-yl)-N-methylacetamide]",≤ 100,≥ 75,≤ 100,≥ 75,≥ 75
"CS(=O)(=O)Nc1cnn(C(=O)N2CCC3(CCN(Cc4cc(Cl)cc(C(F)(F)F)c4)C3)CC2)c1 [Example 297, N-(1-(2-(3-chloro-5-(trifluoromethyl)benzyl)-2,8-diazaspiro[4.5]decane-8-carbonyl)-1H-pyrazol-4-yl)methanesulfonamide]",≤ 100,≥ 75,≤ 100,≥ 75,≥ 75
"Cc1cc(-c2ccccc2)ccc1CN1CCN(C(=O)n2cc(NS(C)(=O)=O)cn2)CC1 [Example 219, N-(1-(4-((3-methyl-[1,1′-biphenyl]-4-yl)methyl)piperazine-1-carbonyl)-1H-pyrazol-4-yl)methanesulfonamide]",1000 to 10000,≥ 75,≤ 100,≥ 75,≥ 75
"CC(=O)N(C)c1cnn(C(=O)N2CC3CN(Cc4ccc(Cl)cc4)CC3C2)c1 (stereo not shown) [Example 11, N-(1-(5-(4-chlorobenzyl)octahydropyrrolo[3,4-c]pyrrole-2-carbonyl)-1H-pyrazol-4-yl)-N-methylacetamide]",100 to 1000,≥ 75,≤ 100,≥ 75,≥ 75
"CC(=O)N(C)c1cnn(C(=O)N2C[C@H]3C[C@H](N(Cc4ccccc4Cl)C(C)=O)C[C@H]3C2)c1 [Example 172, N-(2-chlorobenzyl)-N-(trans-2-(4-(N-methylacetamido)-1H-pyrazole-1-carbonyl)octahydrocyclopenta[c]pyrrol-5-yl)acetamide]",≤ 100,≥ 75,1000 to 10000,0 to 25,0 to 25
"CC(=O)N(C)c1cnn(C(=O)N2CCC3(CCN(Cc4ccccc4C(F)(F)F)C3)C2)c1 (stereo not shown) [Example 58, N-methyl-N-(1-(7-(2-(trifluoromethyl)benzyl)-2,7-diazaspiro[4.4]nonane-2-carbonyl)-1H-pyrazol-4-yl)acetamide]",100 to 1000,≥ 75,≤ 100,≥ 75,≥ 75
"CC(=O)Nc1cnn(C(=O)N2CCC3(CCN(Cc4cc(Cl)cc(C(F)(F)F)c4)C3)CC2)c1 [Example 313, N-(1-(2-(3-chloro-5-(trifluoromethyl)benzyl)-2,8-diazaspiro[4.5]decane-8-carbonyl)-1H-pyrazol-4-yl)acetamide]",,≥ 75,,≥ 75,≥ 75
